In the supplement of paper PMC6965134:
± gives the standard deviation of the averaged measurements.

Assay: TIMS collisional cross section (CCS, N2) of the lipid ion; higher = larger ion cross section
Conditions: ionization mode: positive, one isomer drawn

Structure (SMILES)	TIMS collisional cross section (sample type: HeLa) [Å²]	TIMS collisional cross section (sample type: plasma) [Å²]	TIMS collisional cross section (sample type: Liver) [Å²]
CCCCCCCCCCCCCCCCCCCC(=O)OC[C@@H](COC(=O)CCCCCCCCCCCCC)OC(=O)CCCCCCCCCCCCCCC [TG 14:0_16:0_20:0] (ion (formula + adduct): [C53H102O6+NH4] 1+)	320.6		
CCCCC/C=C\C/C=C\C/C=C\C/C=C\CCCC(=O)OC[C@@H](COC(=O)CCCCCCCCCCCCC)OC(=O)CCCCCCCCCCCCCCC [TG 14:0_16:0_20:4] (ion (formula + adduct): [C53H94O6+NH4] 1+)		314.2	
CC/C=C\C/C=C\C/C=C\C/C=C\C/C=C\CCCCCC(=O)OC[C@@H](COC(=O)CCCCCCCCCCCCC)OC(=O)CCCCCCCCCCCCCCC [TG 14:0_16:0_22:5] (ion (formula + adduct): [C55H96O6+NH4] 1+)	318		
CC/C=C\C/C=C\C/C=C\C/C=C\C/C=C\C/C=C\CCC(=O)OC[C@@H](COC(=O)CCCCCCCCCCCCC)OC(=O)CCCCCCCCCCCCCCC [TG 14:0_16:0_22:6] (ion (formula + adduct): [C55H94O6+NH4] 1+)	317.6		
CCCCCC/C=C\CCCCCCCC(=O)OC[C@@H](COC(=O)CCCCCCCCCCCCC)OC(=O)CCCCCCC/C=C\CCCCCC [TG 14:0_16:1_16:1] (ion (formula + adduct): [C49H90O6+NH4] 1+)	302.9 ± 0.28	303.5	
CCCCCC/C=C\CCCCCCCC(=O)O[C@H](COC(=O)CCCCCCCCCCCCC)COC(=O)CCCCCCCCCCCCCCCC [TG 14:0_16:1_17:0] (ion (formula + adduct): [C50H94O6+NH4] 1+)	309.6	309	
CCCCCC/C=C\CCCCCCCC(=O)O[C@@H](COC(=O)CCCCCCC/C=C\CCCCCCC)COC(=O)CCCCCCCCCCCCC [TG 14:0_16:1_17:1] (ion (formula + adduct): [C50H92O6+NH4] 1+)	307.1	307.3	
CCCCCC/C=C\CCCCCCCC(=O)O[C@@H](COC(=O)CCCCCCC/C=C\CCCCCCCC)COC(=O)CCCCCCCCCCCCC [TG 14:0_16:1_18:1] (ion (formula + adduct): [C51H94O6+NH4] 1+)	309.3	309.45 ± 0.071	310.3
CC/C=C\C/C=C\C/C=C\C/C=C\C/C=C\CCCC(=O)OC[C@@H](COC(=O)CCCCCCCCCCCCC)OC(=O)CCCCCCC/C=C\CCCCCC [TG 14:0_16:1_20:5] (ion (formula + adduct): [C53H90O6+NH4] 1+)	310.6		
CC/C=C\C/C=C\C/C=C\C/C=C\C/C=C\C/C=C\CCC(=O)OC[C@@H](COC(=O)CCCCCCCCCCCCC)OC(=O)CCCCCCC/C=C\CCCCCC [TG 14:0_16:1_22:6] (ion (formula + adduct): [C55H92O6+NH4] 1+)	315		
CCCCCCCC/C=C\CCCCCCCC(=O)OC[C@@H](COC(=O)CCCCCCCCCCCCC)OC(=O)CCCCCCCCCCCCCCCC [TG 14:0_17:0_18:1] (ion (formula + adduct): [C52H98O6+NH4] 1+)			315.3
CCCCCCC/C=C\CCCCCCCC(=O)O[C@@H](COC(=O)CCCCCCC/C=C\CCCCCCCC)COC(=O)CCCCCCCCCCCCC [TG 14:0_17:1_18:1] (ion (formula + adduct): [C52H96O6+NH4] 1+)	312.9		313.6
CCCCCCCCCCCCCCCCCCCC(=O)OC[C@@H](COC(=O)CCCCCCCCCCCCC)OC(=O)CCCCCCCCCCCCCCCCC [TG 14:0_18:0_20:0] (ion (formula + adduct): [C55H106O6+NH4] 1+)	326.4	326.1	
CCCCCCCC/C=C\CCCCCCCC(=O)OC[C@@H](COC(=O)CCCCCCCCCCCCC)OC(=O)CCCCCCC/C=C\CCCCCCCC [TG 14:0_18:1_18:1] (ion (formula + adduct): [C53H98O6+NH4] 1+)			315.3
CCCCC/C=C\C/C=C\CCCCCCCC(=O)OC[C@@H](COC(=O)CCCCCCCCCCCCC)OC(=O)CCCCCCC/C=C\CCCCCCCC [TG 14:0_18:1_18:2] (ion (formula + adduct): [C53H96O6+NH4] 1+)			312.9
CCCCCCCC/C=C\CCCCCCCCCC(=O)OC[C@@H](COC(=O)CCCCCCCCCCCCC)OC(=O)CCCCCCC/C=C\CCCCCCCC [TG 14:0_18:1_20:1] (ion (formula + adduct): [C55H102O6+NH4] 1+)	322.3		322.4
CCCCC/C=C\C/C=C\CCCCCCCCCC(=O)OC[C@@H](COC(=O)CCCCCCCCCCCCC)OC(=O)CCCCCCC/C=C\CCCCCCCC [TG 14:0_18:1_20:2] (ion (formula + adduct): [C55H100O6+NH4] 1+)	320		320.5
CC/C=C\C/C=C\C/C=C\C/C=C\C/C=C\CCCC(=O)OC[C@@H](COC(=O)CCCCCCCCCCCCC)OC(=O)CCCCCCC/C=C\C/C=C\CCCCC [TG 14:0_18:2_20:5] (ion (formula + adduct): [C55H92O6+NH4] 1+)			312.4
CCCC/C=C\CCCCCCCC(=O)OC[C@H](COC(=O)CCCCCCC/C=C\CCCCCC)OC(=O)CCCCCCCCCCCCCC [TG 14:1_15:0_16:1] (ion (formula + adduct): [C48H88O6+NH4] 1+)	300.7	300.5	300.3
CCCC/C=C\CCCCCCCC(=O)OC[C@H](COC(=O)CCCCCCC/C=C\CCCCCC)OC(=O)CCCCCCCCCCCCCCC [TG 14:1_16:0_16:1] (ion (formula + adduct): [C49H90O6+NH4] 1+)	303.9 ± 0.85	303.9 ± 0.28	302.9
CCCC/C=C\CCCCCCCC(=O)OC[C@H](COC(=O)CCCCCCCCCCCCCCCCC)OC(=O)CCCCCCC/C=C\CCCCCC [TG 14:1_16:1_18:0] (ion (formula + adduct): [C51H94O6+NH4] 1+)	309.6		
CCCCCCCCCCCCCCCC(=O)OC[C@@H](COC(=O)CCCCCCCCCCCCCC)OC(=O)CCCCCCCCCCCCCC [TG 15:0_15:0_16:0] (ion (formula + adduct): [C49H94O6+NH4] 1+)	308		
CCCCCC/C=C\CCCCCCCC(=O)OC[C@@H](COC(=O)CCCCCCCCCCCCCC)OC(=O)CCCCCCCCCCCCCC [TG 15:0_15:0_16:1] (ion (formula + adduct): [C49H92O6+NH4] 1+)	305.9		

Now from value to compound:

TIMS collisional cross section (sample type: HeLa) [Å²]	TIMS collisional cross section (sample type: plasma) [Å²]	TIMS collisional cross section (sample type: Liver) [Å²]	Structure (SMILES)
	307.8 ± 0.92	306.1	CCCCC/C=C\C/C=C\CCCCCCCC(=O)OC[C@@H](COC(=O)CCCCCCCCCCCCC)OC(=O)CCCCCCC/C=C\CCCCCC [TG 14:0_16:1_18:2] (ion (formula + adduct): [C51H92O6+NH4] 1+)
311			CCCCC/C=C\C/C=C\C/C=C\C/C=C\CCCC(=O)OC[C@@H](COC(=O)CCCCCCCCCCCCC)OC(=O)CCCCCCC/C=C\CCCCCC [TG 14:0_16:1_20:4] (ion (formula + adduct): [C53H92O6+NH4] 1+)
	309.2	308.7	CCCCC/C=C\C/C=C\C/C=C\CCCCC(=O)OC[C@@H](COC(=O)CCCCCCCCCCCCC)OC(=O)CCCCCCC/C=C\C/C=C\CCCCC [TG 14:0_18:2_18:3] (ion (formula + adduct): [C53H92O6+NH4] 1+)
294.6		291.2	CCCC/C=C\CCCCCCCC(=O)OC[C@H](COC(=O)CCCCCCC/C=C\CCCCCC)OC(=O)CCCCCCC/C=C\CCCC [TG 14:1_14:1_16:1] (ion (formula + adduct): [C47H84O6+NH4] 1+)
		296.3	CCCC/C=C\CCCCCCCC(=O)OC[C@H](COC(=O)CCCCCCC/C=C\C/C=C\CCCCC)OC(=O)CCCCCCC/C=C\CCCC [TG 14:1_14:1_18:2] (ion (formula + adduct): [C49H86O6+NH4] 1+)
298.2		296	CCCC/C=C\CCCCCCCC(=O)OC[C@H](COC(=O)CCCCCCC/C=C\CCCCCC)OC(=O)CCCCCCC/C=C\CCCCC [TG 14:1_15:1_16:1] (ion (formula + adduct): [C48H86O6+NH4] 1+)
301.5		301.9	CCCC/C=C\CCCCCCCC(=O)OC[C@H](COC(=O)CCCCCCC/C=C\CCCCCC)OC(=O)CCCCCCC/C=C\CCCCCC [TG 14:1_16:1_16:1] (ion (formula + adduct): [C49H88O6+NH4] 1+)
		305.4	CCCC/C=C\CCCCCCCC(=O)OC[C@H](COC(=O)CCCCCCC/C=C\CCCCCCC)OC(=O)CCCCCCC/C=C\CCCCCC [TG 14:1_16:1_17:1] (ion (formula + adduct): [C50H90O6+NH4] 1+)
307.85 ± 1.2	307	307.7	CCCC/C=C\CCCCCCCC(=O)OC[C@H](COC(=O)CCCCCCC/C=C\CCCCCCCC)OC(=O)CCCCCCC/C=C\CCCCCC [TG 14:1_16:1_18:1] (ion (formula + adduct): [C51H92O6+NH4] 1+)
306.1	304.5	304.7	CCCC/C=C\CCCCCCCC(=O)OC[C@H](COC(=O)CCCCCCC/C=C\C/C=C\CCCCC)OC(=O)CCCCCCC/C=C\CCCCCC [TG 14:1_16:1_18:2] (ion (formula + adduct): [C51H90O6+NH4] 1+)
	308.6		CCCC/C=C\CCCCCCCC(=O)OC[C@H](COC(=O)CCCCCCC/C=C\C/C=C\CCCCC)OC(=O)CCCCCCC/C=C\CCCCCCC [TG 14:1_17:1_18:2] (ion (formula + adduct): [C52H92O6+NH4] 1+)
